# Laboratory results taken from PubChem BioAssay (NCI).
#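 Five compound concentrations were applied to cells in 96-well plates for 48 hours; endpoints were derived by simple linear interpolation of the resulting dose-response curve. TGI: concentration producing complete growth inhibition.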
# Columns and labels:
# Assay in all cases: inhibition of tumour cell growth, NCI panel, 48 h
# [1] = tested on: CAKI-1 renal
# [2] = tested on: COLO 205 colon
# [3] = tested on: HCC-2998 colon
# [4] = tested on: HOP-62 NSCLC
# [5] = tested on: IGROV1 ovarian
# [6] = tested on: KM12 colon
# [7] = tested on: LOX IMVI melanoma
# [8] = tested on: M14 melanoma
# [9] = tested on: MDA-MB-231 breast
# [10] = tested on: NCI-H226 lung
# [11] = tested on: NCI/ADR-RES ovarian
# [12] = tested on: OVCAR-3 ovarian
# [13] = tested on: SF-268 CNS
# [14] = tested on: SK-MEL-5 melanoma
# [15] = tested on: SN12C renal
# [16] = tested on: SNB-75 CNS
# [17] = tested on: SR leukemia
# [18] = tested on: U251 CNS
# [19] = tested on: UACC-257 melanoma
# [20] = tested on: UACC-62 melanoma
Compound,TGI [1],TGI [2],TGI [3],TGI [4],TGI [5],TGI [6],TGI [7],TGI [8],TGI [9],TGI [10],TGI [11],TGI [12],TGI [13],TGI [14],TGI [15],TGI [16],TGI [17],TGI [18],TGI [19],TGI [20]
CCOC(=O)Cc1nnc2n(-c3ccccc3)c(=O)c3ccccc3n12,43.3 µM,> 100 µM,> 100 µM,> 100 µM,> 100 µM,> 100 µM,> 100 µM,> 100 µM,> 100 µM,> 100 µM,> 100 µM,> 100 µM,> 100 µM,> 100 µM,> 100 µM,> 100 µM,> 100 µM,> 100 µM,> 100 µM,> 100 µM
CC(C)(C)C1CCC2c3c([nH]c4ccccc34)C3C(=O)N(c4ccccc4[N+](=O)[O-])C(=O)C3C2C1 (stereo not given),32.4 µM,24.1 µM,18.2 µM,21.5 µM,76 µM,,31.4 µM,33.8 µM,27.2 µM,57.2 µM,> 100 µM,28.6 µM,,26.7 µM,64.3 µM,,> 100 µM,40.3 µM,90.6 µM,28.2 µM
Cc1cc(C)nc(NS(=O)(=O)c2ccc(Nc3c4ccccc4nc4c(C(=O)NC(CO)(CO)CO)cccc34)cc2)n1,> 100 µM,42.6 µM,36.1 µM,> 100 µM,> 100 µM,36.4 µM,42.2 µM,> 100 µM,> 100 µM,,> 100 µM,> 100 µM,> 100 µM,44.5 µM,> 100 µM,55.2 µM,67.2 µM,83.5 µM,> 100 µM,> 100 µM
O=C1C2CCCCC2C(=O)N1n1c(-c2ccccc2)n[nH]c1=O (stereo not given),> 100 µM,> 100 µM,> 100 µM,> 100 µM,> 100 µM,> 100 µM,> 100 µM,> 100 µM,> 100 µM,> 100 µM,> 100 µM,> 100 µM,> 100 µM,> 100 µM,> 100 µM,> 100 µM,> 100 µM,> 100 µM,> 100 µM,> 100 µM
CCOC(=O)C(NC(C)=O)(Nc1ccc(S(N)(=O)=O)cc1)C(F)(F)F (stereo not given),> 100 µM,> 100 µM,> 100 µM,> 100 µM,> 100 µM,> 100 µM,> 100 µM,> 100 µM,> 100 µM,> 100 µM,> 100 µM,> 100 µM,> 100 µM,> 100 µM,> 100 µM,> 100 µM,> 100 µM,> 100 µM,> 100 µM,
O=C(O)c1ccccc1CC1Cc2cc3c(cc2C1)CCC3,,> 100 µM,> 100 µM,> 100 µM,> 100 µM,> 100 µM,> 100 µM,> 100 µM,> 100 µM,> 100 µM,> 100 µM,> 100 µM,> 100 µM,> 100 µM,> 100 µM,> 100 µM,> 100 µM,> 100 µM,> 100 µM,> 100 µM
CON(C)C(=O)[C@H]1C[C@@]1(C)CO,> 100 µM,> 100 µM,> 100 µM,> 100 µM,> 100 µM,> 100 µM,,> 100 µM,> 100 µM,> 100 µM,> 100 µM,> 100 µM,> 100 µM,> 100 µM,> 100 µM,> 100 µM,> 100 µM,> 100 µM,> 100 µM,> 100 µM
O=S1(=O)c2ccccc2C(Nc2ccccc2)N1c1ccccc1 (stereo not given),> 100 µM,,> 100 µM,> 100 µM,> 100 µM,> 100 µM,> 100 µM,,> 100 µM,> 100 µM,> 100 µM,> 100 µM,> 100 µM,> 100 µM,> 100 µM,> 100 µM,> 100 µM,> 100 µM,> 100 µM,> 100 µM
COC(=O)c1cc(=O)n(-c2ccc3nn(C)nc3c2)cc1C(=O)OC,> 100 µM,> 100 µM,> 100 µM,> 100 µM,> 100 µM,> 100 µM,,> 100 µM,> 100 µM,> 100 µM,> 100 µM,> 100 µM,> 100 µM,> 100 µM,> 100 µM,> 100 µM,> 100 µM,> 100 µM,> 100 µM,> 100 µM
CC(NCc1c(O)ccc2ccc(=O)oc12)C(=O)O (stereo not given),> 100 µM,> 100 µM,> 100 µM,> 100 µM,> 100 µM,> 100 µM,> 100 µM,> 100 µM,> 100 µM,> 100 µM,> 100 µM,> 100 µM,> 100 µM,> 100 µM,> 100 µM,> 100 µM,> 100 µM,> 100 µM,> 100 µM,> 100 µM
CC(C)(C)C1CCC2c3c([nH]c4ccccc34)C3C(=O)N(c4ccccc4Cl)C(=O)C3C2C1 (stereo not given),37.1 µM,,11.2 µM,32.5 µM,> 100 µM,,28.5 µM,45.7 µM,24.6 µM,,44 µM,47.3 µM,35.5 µM,28.7 µM,22.7 µM,,> 100 µM,50.6 µM,> 100 µM,45.4 µM
Cc1c2c(nc3ccccc13)C(=O)c1cccnc1C2=O,,48.7 µM,> 100 µM,> 100 µM,> 100 µM,> 100 µM,35.2 µM,48.8 µM,> 100 µM,> 100 µM,> 100 µM,43.9 µM,> 100 µM,1.48 µM,> 100 µM,91.7 µM,65.6 µM,> 100 µM,27.2 µM,10.1 µM
O=C(O)C1(Cc2ccccc2)Cc2cc3c(cc2C1)CCC3,,> 100 µM,> 100 µM,> 100 µM,> 100 µM,> 100 µM,> 100 µM,> 100 µM,> 100 µM,> 100 µM,> 100 µM,> 100 µM,> 100 µM,> 100 µM,> 100 µM,> 100 µM,> 100 µM,> 100 µM,> 100 µM,> 100 µM
O=C(NNC1=NCCCN1)c1ccco1,,> 100 µM,> 100 µM,> 100 µM,> 100 µM,> 100 µM,> 100 µM,> 100 µM,> 100 µM,> 100 µM,> 100 µM,> 100 µM,> 100 µM,> 100 µM,> 100 µM,> 100 µM,> 100 µM,> 100 µM,> 100 µM,> 100 µM
CCOC(=O)CC[C@H](NC(=O)N[C@H](C)c1ccccc1)C(=O)OCC,> 100 µM,32.7 µM,72.3 µM,> 100 µM,> 100 µM,> 100 µM,> 100 µM,28.2 µM,> 100 µM,> 100 µM,75.9 µM,41.5 µM,,> 100 µM,> 100 µM,,> 100 µM,> 100 µM,46.6 µM,34.8 µM
CC(=O)OCC1OC(c2c(OC(C)=O)cc(C)c3c(=O)cc(/C(C(C)=O)=C(\C)O)oc23)C(OC(C)=O)C(OC(C)=O)C1OC(C)=O (stereo not given),> 100 µM,> 100 µM,> 100 µM,> 100 µM,> 100 µM,> 100 µM,,> 100 µM,> 100 µM,> 100 µM,> 100 µM,> 100 µM,> 100 µM,> 100 µM,> 100 µM,> 100 µM,> 100 µM,> 100 µM,> 100 µM,> 100 µM
O=c1cc(NNCc2ccccc2)[nH]c(=O)[nH]1,> 100 µM,> 100 µM,> 100 µM,> 100 µM,> 100 µM,> 100 µM,> 100 µM,> 100 µM,> 100 µM,> 100 µM,> 100 µM,> 100 µM,> 100 µM,> 100 µM,> 100 µM,,> 100 µM,> 100 µM,> 100 µM,
COc1ccc2nc3c([N+](=O)[O-])ccc4c3c(c2c1)NCCN4CCN(C)C,7.35 µM,,,3.44 µM,3.15 µM,1.46 µM,1.45 µM,1.71 µM,1.88 µM,7.13 µM,3.25 µM,2.4 µM,2.41 µM,2.08 µM,3.28 µM,1.57 µM,7.24 µM,2.54 µM,4.58 µM,1.96 µM
C/C=C/C=C\C=C/C(O)C(C)C(CCC(C)C1OC(=O)C=CC1C)OP(=O)(O)O (stereo not given),0.314 µM,0.788 µM,,0.786 µM,0.694 µM,1.16 µM,1.09 µM,0.685 µM,> 71.1 µM,2.02 µM,2.88 µM,0.393 µM,2.03 µM,1.84 µM,1.11 µM,2.85 µM,0.511 µM,2.5 µM,3.02 µM,1.11 µM
O=c1[nH]c(N/N=C\C(=N/Nc2nc3ccccc3c(=O)[nH]2)C(O)C(O)C(O)CO)nc2ccccc12 (stereo not given),> 100 µM,> 100 µM,,> 100 µM,> 100 µM,> 100 µM,> 100 µM,> 100 µM,> 100 µM,> 100 µM,> 100 µM,> 100 µM,> 100 µM,> 100 µM,> 100 µM,> 100 µM,> 100 µM,> 100 µM,> 100 µM,> 100 µM
CC1(C)C2CCC1(C)C(OC(=O)/C=C/C(=O)OC1CC3CCC1(C)C3(C)C)C2 (stereo not given),> 100 µM,> 100 µM,> 100 µM,> 100 µM,> 100 µM,> 100 µM,49.9 µM,> 100 µM,> 100 µM,,> 100 µM,> 100 µM,> 100 µM,> 100 µM,> 100 µM,86.6 µM,55.7 µM,> 100 µM,> 100 µM,> 100 µM
CNC1c2ccccc2C(=O)c2cc3c(cc21)OCCOCCOCCOCCO3 (stereo not given),,> 100 µM,> 100 µM,> 100 µM,> 100 µM,> 100 µM,,> 100 µM,> 100 µM,,> 100 µM,,> 100 µM,> 100 µM,> 100 µM,> 100 µM,96.2 µM,> 100 µM,> 100 µM,
C=C(C)[C@@H]1CCC2=C[C@H](C/C(C)=C\C3=CC(C)=C(O3)[C@H]1O)OC2=O,> 100 µM,> 100 µM,> 100 µM,,> 100 µM,> 100 µM,> 100 µM,> 100 µM,98.8 µM,> 100 µM,> 100 µM,> 100 µM,> 100 µM,> 100 µM,> 100 µM,> 100 µM,> 100 µM,> 100 µM,> 100 µM,> 100 µM
Oc1[nH]c(=S)[nH]c1/C=C1/C(c2ccccc2)=Nc2ccccc21,37.5 µM,31.8 µM,36.9 µM,29.1 µM,30.3 µM,29.3 µM,24.3 µM,,33.5 µM,35.8 µM,51.7 µM,30 µM,> 100 µM,25.8 µM,38.7 µM,28.8 µM,27.9 µM,34.9 µM,29 µM,26.4 µM
Cc1cc(=O)oc2c(CNC(CO)C(=O)O)c(O)ccc12 (stereo not given),> 100 µM,> 100 µM,,> 100 µM,> 100 µM,> 100 µM,> 100 µM,> 100 µM,> 100 µM,> 100 µM,> 100 µM,> 100 µM,> 100 µM,> 100 µM,> 100 µM,> 100 µM,> 100 µM,> 100 µM,> 100 µM,> 100 µM
